Measurements published in article PMC3017052, “A Novel Peptide Derived from Human Apolipoprotein E Is an Inhibitor of Tumor Growth and Ocular Angiogenesis” (PLoS ONE, 2011).

How the values were obtained:
HUVEC [1] = type: cell-based, human; details: 48 h
Method: (§1) To confirm that apoEdp affects cell survival, cell viability was determined using the cell titer 96®AQuous One solution cell proliferation kit. ApoEdp treatment of HUVECs induced a dose-dependent inhibition of cell viability (Fig. 1A). […] To determine whether apoEdp suppresses tumor growth by directly affecting tumor cells, we performed a cell viability assay using human breast cancer MDA-MB-231 cell line in vitro and cell titer 96®AQuous One solution cell proliferation kit.
(§2) Figure 1 ApoEdp affects HUVEC survival but not MDA-MB-231. A. HUVEC: ApoEdp has a significant effect on VEGF-induced HUVEC viability. Cells were treated with apoEdp at the indicated concentrations and incubated with constant 50 ng/mL VEGF for 48 hr. All values were normalized to cell control of no VEGF and no apoEdp. Cell viability values (mean ± SEM) are expressed as % of the value of the VEGF control. B. MDA-MB-231: ApoEdp has no effect on MDA-MB-231viability. ApoEdp has no significant effect on MDA-MB-231 survival. Cells were treated with apoEdp at the indicated concentrations and incubated at 37°C for 2 days. Cell viability values (mean ± SEM) are expressed as % of the value of the control (untreated cells). […]
The effect of apoEdp on ED survival was evaluated. […] Two days later, cell numbers were determined using the CellTiter96 AQueous One solution cell proliferation kit (Promega, Madison, WI).

MDA-MB-231 cells = type: cell-based, human; details: 48 h
Method: as §1
as §2, with “Cells were treated with apoEdp at the indicated concentrations and incubated at 37°C for 2 days.” left out
Cell survival studies were carried out using the CellTiter96 AQueous One solution cell survival assay. […] The cells were incubated for 48 hr and then the AQueous One solution was added to the samples and measured at 490 nm.

[2] = tested on: MDA-MB-231 tumor xenografts; experiment: Xenograft tumor growth assay in nude mice; type: in vivo
Method: In order to assess the in vivo effect of apoEdp on tumor growth, we established subcutaneous human breast cancer MDA-MB-231 tumor xenografts in nude mice. Once tumor size became ∼100 mm^3 in approximately 10 days, mice were randomly divided into two groups, and treated with PBS or apoEdp at 40 mg/kg/day for three consecutive days.
Figure 6 ApoEdp inhibits tumor growth in vivo. MDA-MB-231 breast cancer cells were used for anti-tumor studies. A suspension of 3×10^6 cells in 0.1 mL of PBS was injected in the right dorsal flank. Tumors were monitored weekly in two diameters with digital calipers. Tumor volumes were determined using A×B^2×0.52 (where A is the longest and B is the shortest diameter). Tumors were allowed to grow to ∼100 mm^3 and mice were randomized. Single intralesional administration daily of PBS or 40 mg/kg/day of apoEdp for 3 consecutive days was performed and then stopped. Representative photographs of mouse xenograft treated with (A) apoEdp or PBS are shown.
Female nu/nu mice (8–12 weeks old, weighing ∼20 g) were obtained from […] (Harlan, Indianapolis, IN). […] The growth of the tumor xenograft was evaluated by determining the tumor volume using digital calipers every 7 days. Tumor volume was calculated using the relationship A×B^2×0.52, where A is the longest diameter and B the shortest. […]

HUVEC [3] = experiment: Wound-healing/migration assay; type: cell-based, human; details: 50 ng/mL VEGF, apoEdp 6–100 µM, three independent experiments; read-out: IC50, inhibition of VEGF-induced HUVEC wound-healing migration
Method: An important angiogenic phenotype of ECs induced by VEGF is cell migration. The major aspects of VEGF action on ECs are its ability to act as a chemoattractant and to stimulate the angiogenic morphogenesis. […] Cell migration was examined after simulation of an artificial wound by perturbation of a cell monolayer using a 1-mL pipette tip. […] (Fig. 2C).
Figure 2 ApoEdp inhibits wound-healing migration in vitro. Monolayers of HUVECs were scraped and incubated in medium containing 50 ng/mL VEGF in the presence or absence of various concentrations of apoEdp. VEGF stimulated the migration of HUVECs in the scraped area. Representative photomicrographs of cells treated with (A) VEGF alone or with (B) VEGF and apoEdp together are shown. Solid lines indicate the initial scraping. […] The bar diagram is the quantitative measurement of cell migration inside the scraped area. The data shown are representative of three independent experiments. ** p<0. 01; and *** p<0.001.
To determine the effect of apoEdp on EC migration induced by VEGF, wound-healing assays were performed using HUVEC cells. Cells were allowed to grow to confluency on 6-well plates and washed twice with PBS. […] Migration of the cells into the wounded area was photographed with an Olympus U-RLF-T microscope and counted. […]

Ac-LRKLRKRLLLRKLRKRLL-NH2 [apoEdp] was tested, and the “50% cytotoxicity (CC50), HUVEC viability” value (HUVEC [1]) was “about 103 µM”, the “50% cytotoxic dose (CC50), MDA-MB-231 viability” value (MDA-MB-231 cells) was over 300 µM and the “Tumor growth in MDA-MB-231 xenograft” value ([2]; nude (nu/nu) mice, 40 mg/kg/day intralesional for 3 consecutive days, compared to PBS-treated controls) was “significantly inhibited tumor growth”. The “Observable toxicity during treatment” value ([2]; nude mice, 40 mg/kg/day for 3 days, data not shown) was “no sign of observable toxicity” and the IC50 (HUVEC [3]) was about 21.5 µM.
